One may read the melting point as the temperature of the solid-liquid transition.

Series [1] relates to rat mesangial cell line. The series is described as follows: TGF-β stimulated 3H-proline incorporation in mesangial cells (Example 5). It is filed as cell-based. The following applies: for Collagen synthesis: inhibition ranked against tranilast (T) or FT11. The protocol:
(§1) A well-characterized cloned rat mesangial cell line (gift of D Nikolic-Patterson) is cultured in DMEM with FBS, 100 U/mL penicillin, and 100 ug/mL streptomycin in a humidified 5% CO2 atmosphere at 37° C. Cells are plated into 24-well culture dishes in DMEM/10% FBS at low density and allowed to adhere overnight. Cells are used between passages 20 and 40. The subconfluent cells are starved overnight in DMEM/0.1% FBS containing 150 uM L-ascorbic acid, prior to 4 hours of pre-treatment with or without tranilast or the FT compounds, followed by the addition of 5 ng/mL rhTGF-β11 (R&D Systems) and 1 uCi/mL of L-(2,3,4,5-^3H)-proline. Control wells have the compounds but no TGF-β1 added. Cells are incubated for a further 44 hours during which time their appearance is visually monitored. The cells are then washed three times in ice-cold PBS, twice in ice cold 10% TCA and solubilized in 750 uL 1M NaOH for 45 minutes at 37° C. or overnight at 4° C. A 500 uL aliquot is neutralized with 500 uL 1M HCl and 10 mL scintillation fluid (Instagel Plus-Perkin-Elmer) added. Counts are performed on a beta counter.
To normalize the proline incorporation counts to take into account the proliferative effects of TGF-β1, a BioRad protein assay is performed on a 100-150 uL aliquot of the remaining solubilized cells. The sample is neutralized with an equal amount of 1M HCl prior to the assay. The BSA standards used to construct the standard curve have the same amount of 1M NaOH and 1M HCl added as is present in the samples for assay.
Proline incorporation is expressed as cpm/ug protein. In order to compare inter-assay results, the incorporation is expressed as percentage reduction of TGF stimulated proline incorporation, where TGF alone gives 0% reduction and the zero control gives 100% reduction.

The test system of series [2] is rat mesangial cell line. Nature of the series: Effect on mesangial cell appearance (visual monitoring during proline assay). It is filed as cell-based. The protocol:
as §1
Compounds in Bold have Minimal Effect on Cell Appearance and Viability

The subject of series [3] is Mesangial cells. Nature of the series: Mesangial cell MTT assay with TGF-β. The following applies: @ 30 μM; suppressed = reduced cell viability. It is filed as cell-based, rat. The protocol: Mesangial cells are plated at 15000 cells per well into 96-well culture dishes in DMEM/10% FBS and allowed to adhere overnight. The subconfluent cells are starved overnight in DMEM/0.1% FBS, prior to 4 hours of pre-treatment with or without tranilast or the FT compounds. Following the addition of 5 ng/mL rhTGF-β1, the cells are incubated in a humidified 5% CO2 atmosphere at 37° C. for 44 hours. Control wells have the compounds but no TGF-β1 added. The culture medium is removed from each well and 100 uL MTT (0.5 mg/mL) in starve medium is added to each well. The plates are incubated for a further 4 hours at 37° C. The culture medium is then removed and replaced with 100 μL isopropanol and incubated at 37° C. for 20 to 30 minutes, until the blue formazan crystals have dissolved. The absorbance is measured at a wavelength of 570 nm with background subtraction of 690 nm.
Suppressed MTT Result Indicates Reduced Cell Viability
A general note: Tetrazolium dyes change colour on reduction, which living cells bring about.

Setting [4] is: Rattus norvegicus, Mesangial cell, 5 ng/mL TGF-β1, 44 h, read-out: Mesangial Cell Assay TGF-β % reduction of TGF-β stimulation_proline inc.

Turning to `COc1ccc(/C=C/C(=O)Nc2ccccc2C(=O)O)cc1O` [Analogue 7, (E)-2-[[3-(3-Hydroxy-4-methoxyphenyl)-1-oxo-2-propenyl]amino]benzoic acid], the melting point was in the range of 215 to 216 °C. Moreover, the inhibition at 10 µM in series [1] (setting [4]) is ~50%. Further, the inhibition at 50 µM in series [1] (Rattus norvegicus, Mesangial cell, @ 50 μM, 5 ng/mL TGF-β1, 44 h, read-out: Mesangial Cell Assay TGF-β % reduction of TGF-β stimulation_proline inc.) was 80%. Further, the Collagen synthesis entry in series [1] is “> or =T”. For the same molecule, the “Effect on mesangial cell appearance” value in series [2] (no concentration stated) is recorded as “stressed”.
As for `COc1ccc(/C=C/C(=O)Nc2cc3ccccc3cc2C(=O)O)cc1OC` [Analogue 8, (E)-3-[[3-(3,4-Dimethoxyphenyl)-1-oxo-2-propenyl]amino]-2-naphthoic acid], the melting point fell in the range of 212 to 213 °C. In series [1], the Collagen synthesis result is on record as “Toxic”. Also, the “Effect on mesangial cell appearance” value in series [2] (no concentration stated) is “Heavily”.
Molecule `COc1ccc(/C=C/C(=O)Nc2ccc(Br)cc2C(=O)O)cc1OC` [Analogue 16, (E)-2-[[3-(3,4-Dimethoxyphenyl)-1-oxo-2-propenyl]amino]-5-bromobenzoic acid] displayed a melting point of 210 to 213 °C. Moreover, in series [1] (setting [4]), the inhibition at 3 µM is ~20% and the inhibition at 10 µM is ~50%. For the same molecule, the Collagen synthesis result in series [1] is listed as “>>FT11”. In addition, the “Effect on mesangial cell appearance” value in series [2] (@ 10 μM) is reported as “lifting off”. For the same molecule, the “Mesangial cell MTT Assay TGF-β” value in series [3] was “Suppressed”.
`CCC#CCOc1ccc(/C=C/C(=O)Nc2ccccc2C(=O)O)cc1OC` [Analogue 18, (E)-2-[[3-(3-Methoxy-4-(pent-2-ynyloxy)phenyl)-1-oxo-2-propenyl]amino]benzoic acid] had a melting point of 185.5 to 186.5 °C. In series [1] (setting [4]), the inhibition at 3 µM is ~55% and the inhibition at 10 µM was ~70%. Also, in series [1], the Collagen synthesis result is recorded as “>>FT11”. Moreover, the “Effect on mesangial cell appearance” value in series [2] (@ 30 μM) was “lifting off”.
On to `COc1ccc(/C=C/C(=O)Nc2ccccc2C(=O)O)cc1OCc1cn(CC(=O)Nc2ccccc2)nn1` [Analogue 21, (E)-2-[[3-(4-Methoxy-3-((1-(2-oxo-2-(phenylamino)ethyl)-1H-1,2,3-triazol-4-yl)methoxy)phenyl)-1-oxo-2-propenyl]amino]benzoic acid], for which, in series [1] (setting [4]), the inhibition at 10 µM is ~20% and the inhibition at 30 µM is ~65%. Moreover, the Collagen synthesis entry in series [1] was “=FT11”. Besides, the “Effect on mesangial cell appearance” value in series [2] (@ 100 μM) is reported as “necrotic”. In series [3], the “Mesangial cell MTT Assay TGF-β” value was “Suppressed”.
Molecule `CC#CCOc1cc(/C=C/C(=O)Nc2ccccc2C(=O)O)ccc1OC` [Analogue 23, (E)-2-{[3-(3-(But-2-ynyloxy)-4-methoxyphenyl)-1-oxo-2-propenyl]amino}benzoic acid] came in with a melting point of 170 to 171 °C. Moreover, in series [1] (setting [4]), the inhibition at 3 µM is ~12%, the inhibition at 10 µM is 30 to 60% and the inhibition at 30 µM was in the range of 70 to 80%. In series [1] (Rattus norvegicus, Mesangial cell, @ 100 μM, 5 ng/mL TGF-β1, 44 h, read-out: Mesangial Cell Assay TGF-β % reduction of TGF-β stimulation_proline inc.), the inhibition at 100 µM was ~80%. For the same molecule, in series [1], the Collagen synthesis result is recorded as “>=FT11”. Moreover, the “Effect on mesangial cell appearance” value in series [2] (@ 100 μM) is on record as “stress @”.
`COc1cc(/C=C/C(=O)Nc2ccccc2C(=O)O)ccc1OC1CCCCC1` [Analogue 27, (E)-2-{[3-(4-Cyclohexyloxy-3-methoxyphenyl)-1-oxo-2-propenyl]amino}benzoic acid] came in with a melting point of 90 to 92 °C. The inhibition at 1 µM in series [1] (Rattus norvegicus, Mesangial cell, @ 1 μM, 5 ng/mL TGF-β1, 44 h, read-out: Mesangial Cell Assay TGF-β % reduction of TGF-β stimulation_proline inc.) was ~18%. For the same molecule, in series [1] (setting [4]), the inhibition at 3 µM was 40% and the inhibition at 10 µM was in the range of 75 to 90%. The Collagen synthesis entry in series [1] is “>FT11”. The “Effect on mesangial cell appearance” value in series [2] (@ 10 μM) is “Sparse @”. Further, the “Effect on mesangial cell appearance” value in series [2] (@ 30 μM) is given as “sick @ 30 μM”. Besides, the “Effect on mesangial cell appearance” value in series [2] (@ 100 μM) was “lifting off”. Further, the “Mesangial cell MTT Assay TGF-β” value in series [3] is “Suppressed”.
In turn, `C#CCCCOc1cc(/C=C/C(=O)Nc2ccccc2C(=O)O)ccc1OC` [Analogue 36, (E)-2-[[3-(4-Methoxy-3-(pent-4-ynyloxy)phenyl)-1-oxo-2-propenyl]amino]benzoic acid] came in with a melting point of 154 to 156 °C. Further, in series [1] (setting [4]), the inhibition at 10 µM is ~50% and the inhibition at 30 µM amounted to 80%. Besides, in series [1], the Collagen synthesis entry is recorded as “=>FT11”. In addition, the “Mesangial cell MTT Assay TGF-β” value in series [3] is recorded as “Severely”.
Molecule `C#CCCOc1ccc(/C=C/C(=O)Nc2ccccc2C(=O)O)cc1OC` [Analogue 37, (E)-2-[[3-(4-(But-3-ynyloxy)-3-methoxyphenyl)-1-oxo-2-propenyl]amino]benzoic acid] gave a melting point of 178 to 180 °C. Besides, in series [1] (setting [4]), the inhibition at 10 µM was ~50% and the inhibition at 30 µM amounted to 70%. Also, the Collagen synthesis result in series [1] was “=FT11”. Besides, in series [2] (@ 100 μM), the “Effect on mesangial cell appearance” value is “Some death”.
`C#CCCOc1cc(/C=C/C(=O)Nc2ccccc2C(=O)O)ccc1OC` [Analogue 38, (E)-2-[[3-(3-(But-3-ynyloxy)-4-methoxyphenyl)-1-oxo-2-propenyl]amino]benzoic acid] displayed a melting point of 197 to 198 °C. For the same molecule, in series [1] (setting [4]), the inhibition at 10 µM is ~40% and the inhibition at 30 µM amounted to 65%. Also, the Collagen synthesis result in series [1] was “=FT11”. Moreover, the “Effect on mesangial cell appearance” value in series [2] (@ 100 μM) is on record as “Some death”.
On to `CCC#CCCOc1ccc(/C=C/C(=O)Nc2ccccc2C(=O)O)cc1OC` [Analogue 39, (E)-2-[[3-(4-(Hex-3-ynyloxy)-3-methoxyphenyl)-1-oxo-2-propenyl]amino]benzoic acid], for which the melting point lay in the range of 165 to 166 °C. In addition, in series [1] (setting [4]), the inhibition at 10 µM was ~70% and the inhibition at 30 µM was determined as 100%. Moreover, the Collagen synthesis result in series [1] is “>FT11”. Besides, the “Effect on mesangial cell appearance” value in series [2] (@ 30 μM) is “Looking bad”.
For `CCC#CCCOc1cc(/C=C/C(=O)Nc2ccccc2C(=O)O)ccc1OC` [Analogue 40, (E)-2-[[3-(3-(Hex-3-ynyloxy)-4-methoxyphenyl)-1-oxo-2-propenyl]amino]benzoic acid], the melting point was 163 to 165 °C. Also, in series [1] (setting [4]), the inhibition at 10 µM was ~70% and the inhibition at 30 µM came out at 100%. In addition, the Collagen synthesis result in series [1] is “>FT11”. The “Effect on mesangial cell appearance” value in series [2] (@ 100 μM) is “dead”.
Turning to `CCCCC#CCCOc1ccc(/C=C/C(=O)Nc2ccccc2C(=O)O)cc1OC` [Analogue 41, (E)-2-[[3-(3-Methoxy-4-(oct-3-ynyloxy)phenyl)-1-oxo-2-propenyl]amino]benzoic acid], the melting point fell in the range of 169 to 170 °C. In addition, the Collagen synthesis result in series [1] was “Toxic”. The “Effect on mesangial cell appearance” value in series [2] (@ all concentrations) was “Cells damaged @”.
In the same order, the values of `CCCCC#CCCOc1cc(/C=C/C(=O)Nc2ccccc2C(=O)O)ccc1OC` [Analogue 42, (E)-2-[[3-(4-Methoxy-3-(oct-3-ynyloxy)phenyl)-1-oxo-2-propenyl]amino]benzoic acid] are 157 to 158 °C, “Toxic” and “Cells damaged @”.
In turn, `CCC(CC)Oc1ccc(/C=C/C(=O)Nc2ccccc2C(=O)O)cc1OC` [Analogue 45, (E)-2-[[3-(3-Methoxy-4-(pent-3-yloxy)phenyl)-1-oxo-2-propenyl]amino]benzoic acid] came in with a melting point of 82 to 85 °C. Moreover, in series [1] (setting [4]), the inhibition at 10 µM turned out to be 80% and the inhibition at 30 µM came out at 142%. The Collagen synthesis entry in series [1] is “>FT11”. The “Effect on mesangial cell appearance” value in series [2] (@ 100 μM) is given as “Cells damaged”.

These data come from patent US9561201B2, “Therapeutic compounds” (Fibrotech Therapeutics Pty Ltd, priority 2006, dated 2017).
